Results reported in PubChem BioAssay AID1645862 (Buhrlage Lab, Dana-Farber Cancer Institute and Novartis …, 2021).
Calls of active or inactive are those of the source. No rule for the calls is given here.

These compounds were tested against Ubiquitin carboxyl-terminal hydrolase 8 (Homo sapiens) (UniProt P40818) (assay: Ubiquitin-specific protease 8 inhibitors, concentration-effect, biochemical, validation of initial actives (AID 1645862;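 also: potency reflects inhibition of USP8 cleavage of a ubiquitin rhodamine substrate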)). Details: recombinant USP8 deubiquitinase activity assay.
Sequence of Ubiquitin carboxyl-terminal hydrolase 8 (Homo sapiens) (P40818 whole entry, looked up): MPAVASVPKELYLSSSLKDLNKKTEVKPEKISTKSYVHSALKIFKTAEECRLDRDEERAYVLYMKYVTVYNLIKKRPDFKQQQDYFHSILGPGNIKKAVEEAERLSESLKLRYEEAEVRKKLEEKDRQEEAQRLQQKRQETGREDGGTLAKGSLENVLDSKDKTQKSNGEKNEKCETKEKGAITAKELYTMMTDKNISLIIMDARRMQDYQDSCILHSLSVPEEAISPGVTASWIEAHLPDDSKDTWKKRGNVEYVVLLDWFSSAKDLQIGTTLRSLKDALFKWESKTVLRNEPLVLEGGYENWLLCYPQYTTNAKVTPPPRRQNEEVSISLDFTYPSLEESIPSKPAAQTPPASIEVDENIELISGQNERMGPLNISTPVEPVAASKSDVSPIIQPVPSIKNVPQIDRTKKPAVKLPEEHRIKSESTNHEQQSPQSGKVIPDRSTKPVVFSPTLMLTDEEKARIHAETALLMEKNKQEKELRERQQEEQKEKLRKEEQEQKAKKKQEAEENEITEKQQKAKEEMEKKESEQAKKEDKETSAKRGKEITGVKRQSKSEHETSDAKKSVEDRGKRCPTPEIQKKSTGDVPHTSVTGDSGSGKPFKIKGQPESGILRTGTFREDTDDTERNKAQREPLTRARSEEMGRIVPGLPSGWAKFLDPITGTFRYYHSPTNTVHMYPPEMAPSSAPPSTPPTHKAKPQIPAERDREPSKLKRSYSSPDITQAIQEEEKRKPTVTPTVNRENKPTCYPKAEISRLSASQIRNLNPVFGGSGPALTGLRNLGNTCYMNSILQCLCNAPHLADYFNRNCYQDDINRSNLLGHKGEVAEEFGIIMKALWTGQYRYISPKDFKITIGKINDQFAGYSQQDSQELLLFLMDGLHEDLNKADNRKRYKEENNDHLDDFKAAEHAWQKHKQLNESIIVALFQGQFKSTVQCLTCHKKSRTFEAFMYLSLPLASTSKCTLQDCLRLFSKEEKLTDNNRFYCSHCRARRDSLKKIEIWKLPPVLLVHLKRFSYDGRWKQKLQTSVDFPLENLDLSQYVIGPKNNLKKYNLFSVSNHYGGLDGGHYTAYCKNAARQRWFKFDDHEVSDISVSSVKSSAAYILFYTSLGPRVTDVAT

Row | IC50 | Structure (SMILES)
1 | > 40 µM (inactive) | COc1ccc(NC(=O)Cn2c(=O)n(CCC(=O)NCc3ccccc3)c(=O)c3sccc32)cc1Cl
2 | > 40 µM (inactive) | O=C(COc1ccc(C2CCCCC2)cc1)Nc1ccc(-c2nn3cnnc3s2)cc1
3 | > 40 µM (inactive) | Cc1cc(NS(=O)(=O)c2ccc(NC(=O)COc3ccc(Cl)cc3)cc2)no1
4 | > 40 µM (inactive) | O=C(CNS(=O)(=O)c1ccc(F)cc1)N1CCCC(c2nnc3ccccn23)C1 (centres undefined)
5 | > 40 µM (inactive) | COc1ccc(-c2nc(NCCCN3CCOCC3)c3ccccc3n2)cc1
6 | > 40 µM (inactive) | O=C(NC1CCCC1)c1ccc(-c2ccc(S(=O)(=O)NCc3ccccc3)cc2)cc1
7 | > 40 µM (inactive) | COc1ccc(/C=C/C(=O)Nc2cccc(S(=O)(=O)Nc3ccccc3Cl)c2)c(OC)c1
8 | > 40 µM (inactive) | O=C(CSc1nc2ccccc2[nH]1)Nc1cccc2c1OCCO2
9 | > 40 µM (inactive) | CCCCNC(=O)C1Sc2nnc(-c3ccccc3)n2NC1c1ccccc1 (centres undefined)
10 | > 40 µM (inactive) | COc1ccc(NC(=O)Cn2c(C)cc(=O)n3nc(-c4cccc(C)c4)nc23)cc1
11 | > 40 µM (inactive) | CCc1cccc(C)c1NC(=O)Cn1nc2ccc(C(=O)NCc3ccccc3)cn2c1=O
12 | > 40 µM (inactive) | Cn1nc(Cl)c(Cl)c1Oc1ccc(S(=O)(=O)Nc2ccc(Oc3ccc(C(F)(F)F)cn3)c(Cl)c2)cc1
13 | > 40 µM (inactive) | COCCCN1CCS(=O)(=O)c2c(Cl)c(F)nc(Oc3ccc(C#N)cc3)c21
14 | > 40 µM (inactive) | Cc1ccc(C(=O)Nc2ccc3c(c2)Sc2ncccc2C(=O)N3C(C)C)cc1C
15 | > 40 µM (inactive) | COc1cc(NC(=O)c2ccc3c(c2)OCO3)ccc1-c1cc2ccccc2oc1=O
16 | > 40 µM (inactive) | Cc1cccc(C)c1NC(=O)CN1C(=O)CC(c2ccccc2)=Nc2ccccc21
17 | > 40 µM (inactive) | CCC(=O)Nc1nc2cc(NC(=O)Nc3cc(C)cc(C)c3)ccc2s1
18 | > 40 µM (inactive) | Cc1noc(-c2ccnc(-n3cnc(C(=O)NCC4CC4)c3)c2)n1
19 | > 40 µM (inactive) | Cc1cccc(NC(=O)Nc2ccccc2OCc2cc(=O)n3cccc(C)c3n2)c1
20 | > 40 µM (inactive) | CSc1nc2ncn(CC(=O)Nc3ccc(Br)cc3)c(=O)c2s1
21 | > 40 µM (inactive) | CCCCCCC1CCC(O)CC(O)CC(O)CC(O)CC(O)CC(O)/C(C)=C/C=C\C=C/C=C/C=C/[C@H](O)[C@@H](C)OC1=O (some centres undefined)

Row | IC50 | Structure (SMILES)
22 | 21.8 µM | Cc1ccc(Cn2cc(-c3noc(C(=O)Nc4cc(F)ccc4F)n3)nn2)cc1
23 | 29.1 µM | O=C(COc1ccccc1-c1nnc(-c2ccccc2)o1)NCCc1ccco1
24 | > 40 µM (inactive) | O=C(NCc1ccccc1)Nc1cccc2ccccc12
25 | 3.61 µM | COc1cc(O)c2c(O)c3c(cc2c1)C[C@@]1(O)CC(=O)C(C(N)=O)=C(O)[C@@]1(O)C3=O
26 | > 40 µM (inactive) | Cc1ccc2cc(-c3noc(CCC(=O)NC4CCCC4)n3)c(=O)[nH]c2c1
27 | > 40 µM (inactive) | Cc1ccc(NC(=O)Nc2nnc(CC(=O)NCc3ccccc3)s2)c(Cl)c1
28 | > 40 µM (inactive) | Nc1ncc(-c2ccc(F)cc2)c(C2CCCN(C(=O)c3ccn[nH]3)C2)n1 (centres undefined)
29 | > 40 µM (inactive) | COc1ccc(OC)c(NC(=O)Cn2c(=O)n(C3CCCCC3)c(=O)c3ccccc32)c1
30 | > 40 µM (inactive) | Cc1cccc(NC(=O)CSc2nnc(NC(=O)c3ccc4ccccc4c3)s2)c1
31 | > 40 µM (inactive) | O=C(CNC(=O)c1ccc2nc(-n3cccc3)sc2c1)NCc1cccc(Cl)c1
32 | > 40 µM (inactive) | Cc1cc(C)cc(NC(=O)C2CC(=O)Nc3nc4ccccc4n32)c1 (centres undefined)
33 | > 40 µM (inactive) | Cc1ccc2c(c1)c(=O)c(C(=O)c1ccccc1)cn2CC(=O)Nc1ccc2c(c1)OCCO2
34 | > 40 µM (inactive) | CC(C)(C)c1ccc(C2CC(=O)C3=C(C2)Nc2ccccc2N(C(=O)CCC(=O)O)C3c2cccc([N+](=O)[O-])c2)cc1 (centres undefined)
35 | 2.07 µM | O=c1cc(-c2ccc(O)c(O)c2)oc2cc(O)cc(O)c12
36 | > 40 µM (inactive) | COc1ccc(CSc2nc3ccncc3n2CC(=O)Nc2ccc(C)cc2C)cc1
37 | > 40 µM (inactive) | COCCNC(=O)Cn1c(=O)n(Cc2ccc(C(=O)NCc3ccc(C)cc3)cc2)c(=O)c2ccccc21
38 | > 40 µM (inactive) | COc1ccc(NC(=O)Cn2c(=O)n(CCCCC(=O)NCc3ccco3)c(=O)c3ccccc32)cc1Cl
39 | > 40 µM (inactive) | COc1ccc(CNC(=O)CCCc2nnc3c(=O)n(-c4cc(C)cc(C)c4)ccn23)cc1
40 | > 40 µM (inactive) | COc1ccc(NC(=O)Cn2cc(C(=O)c3ccccc3)c(=O)c3cc(Cl)ccc32)cc1OC
41 | 27.5 µM | Cc1ccc2c(c1)c(=O)c(C(=O)c1ccccc1)cn2CC(=O)Nc1ccccc1
42 | > 40 µM (inactive) | Cc1sc(NC(=O)c2ccc(S(=O)(=O)N(C)Cc3ccccc3)cc2)c(C(N)=O)c1C

Row | IC50 | Structure (SMILES)
43 | > 40 µM (inactive) | O=C(Cn1c(=O)[nH]c2c(-c3ccccc3)c[nH]c2c1=O)NCc1ccccc1Cl
44 | > 40 µM (inactive) | COC(=O)c1ccc2c(=O)n(CCCCCC(=O)NCCc3ccc(OC)c(OC)c3)c(=O)[nH]c2c1
45 | > 40 µM (inactive) | COc1ccc(-c2cc3nc([C@H](C)NC(=O)Cc4cc(F)ccc4F)nn3cn2)cc1
46 | > 40 µM (inactive) | Cc1noc(-c2cc(=O)n(CC(=O)Nc3ccccc3Cl)c3ccccc23)n1
47 | 26.1 µM | O=C(Cn1nc2c3c4c(sc3ncn2c1=O)CCCCC4)Nc1ccc(Cl)cc1F
48 | > 40 µM (inactive) | O=C(CCCC(=O)N(c1ccc2c(c1)OCCO2)C(C(=O)NC1CCCCC1)c1ccc(F)cc1)Nc1ccccn1 (centres undefined)
49 | > 40 µM (inactive) | c1ccc(CNc2ccc(-c3ccccc3)nn2)cc1
50 | > 40 µM (inactive) | Cc1csc(NC(=O)c2c[nH]c3ccc(F)cc3c2=O)n1
51 | > 40 µM (inactive) | Cc1ccc(NC(=O)Nc2nnc(CC(=O)NCc3ccccc3)s2)cc1F
52 | > 40 µM (inactive) | CS(=O)(=O)c1cccc(-c2nnc(NC(=O)c3ccc(Cc4ccccc4)cc3)o2)c1
53 | > 40 µM (inactive) | COc1ccc(Oc2cc3n(c(=O)n2)CCc2cc(OC)c(OC)cc2-3)cc1
54 | > 40 µM (inactive) | Cc1cc(NC(=O)CN2CCCN(S(=O)(=O)c3ccc(F)cc3)CC2)ccc1Br
55 | > 40 µM (inactive) | O=C(COc1ccc(N2CC(C(=O)NCc3ccccc3)CC2=O)cc1)Nc1ccccc1Cl (centres undefined)
56 | > 40 µM (inactive) | CCOCc1ccc(C(=O)N[C@H](C)c2nc3cc(-c4ccc(OC)cc4)ncn3n2)cc1
57 | > 40 µM (inactive) | COc1ccccc1/C=C/C(=O)NC(Cc1ccccc1)c1nc2ccccc2[nH]1 (centres undefined)
58 | 9.1 µM | Cc1ccc(-c2nc(NC(=O)COc3ccc(Cl)cc3)no2)cc1
59 | > 40 µM (inactive) | Cn1c(=O)n([C@@H](Cc2ccccc2)C(=O)N[C@@H](C(=O)O)c2ccc(O)cc2)c(=O)c2ccccc21
60 | > 40 µM (inactive) | O=C(CCn1c(=O)c2ccccc2n(Cc2ccccc2F)c1=O)NCc1ccco1
61 | 19 µM | O=C1C=C(O)c2c(O)cccc2C1=O
62 | > 40 µM (inactive) | COc1cccc(NC(=O)C(Sc2cccc(NC(=O)c3ccccc3F)c2)c2ccccc2)c1 (centres undefined)
63 | > 40 µM (inactive) | N=C1/C(=C/c2cn(Cc3ccccc3)c3ccccc23)C(=O)N=C2SC(C(F)(F)F)=NN12

Row | Structure (SMILES) | IC50
64 | O=C(c1cc(Cl)c(Cl)[nH]1)c1cc(Cl)cc(Cl)c1O | > 40 µM (inactive)
